According to patent US9169254B2, “Spiroimidazolone derivative” (Chugai Seiyaku Kabushiki Kaisha, priority 2009, dated 2015):

The compounds below were run against T1, human PTH1 receptor (Homo sapiens, UniProt Q03431) (assay: In vitro cAMP signal activity in HKRK-B7 cells (LLC-PK1 cells overexpressing the human PTH1 receptor)). Conditions: 0.1 µM.
T1 sequence (Q03431 27-593): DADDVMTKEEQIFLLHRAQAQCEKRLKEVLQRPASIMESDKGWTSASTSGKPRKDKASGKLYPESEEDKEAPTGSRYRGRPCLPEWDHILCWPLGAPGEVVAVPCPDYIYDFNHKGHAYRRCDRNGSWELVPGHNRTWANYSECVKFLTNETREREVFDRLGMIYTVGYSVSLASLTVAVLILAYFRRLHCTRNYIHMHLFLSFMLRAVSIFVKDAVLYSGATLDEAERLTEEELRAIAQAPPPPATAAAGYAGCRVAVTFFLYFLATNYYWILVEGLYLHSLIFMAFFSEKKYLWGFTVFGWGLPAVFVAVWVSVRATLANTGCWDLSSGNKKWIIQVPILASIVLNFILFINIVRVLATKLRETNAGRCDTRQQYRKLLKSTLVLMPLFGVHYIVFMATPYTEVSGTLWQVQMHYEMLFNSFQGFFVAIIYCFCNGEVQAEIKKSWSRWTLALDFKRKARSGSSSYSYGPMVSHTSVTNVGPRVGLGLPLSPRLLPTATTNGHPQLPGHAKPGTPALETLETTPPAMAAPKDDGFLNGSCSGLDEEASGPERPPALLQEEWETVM
Format: cell-based

Compound | cAMP production activity (%)
Cc1cc(N(C)C(N)=O)cc(C)c1/C=C/[S@TB3](=O)(=O)N1CCC2(CC1)N=C(c1cccc(C(F)(F)C(F)(F)C(F)(F)C(F)(F)F)c1)NC2=O [Compound 1112, 1-(3,5-dimethyl-4-{(E)-2-[2-(3-nonafluorobutyl-phenyl)-4-oxo-1,3,8-triaza-spiro[4.5]dec-1-ene-8-sulfonyl]-vinyl}-phenyl)-1-methyl-urea] | 76

Same assay, conditions: HKRK-B7 cells; compound at 1×10^−3 M; cAMP produced as percentage of that produced by hPTH(1-34) at 100 nM

Compound | cAMP production activity (%)
Cc1cc(C(=O)N2CCC(O)(CF)CC2)cc(C)c1/C=C/S(=O)(=O)N1CCC2(CC1)N=C(c1ccc3cc[nH]c3c1)NC2=O [Compound 1268, 8-{(E)-2-[4-(4-fluoromethyl-4-hydroxy-piperidine-1-carbonyl)-2,6-dimethyl-phenyl]-ethenesulfonyl}-2-(1H-indol-6-yl)-1,3,8-triaza-spiro[4.5]dec-1-en-4-one] | 33
Cc1cc(N2C(=O)N(CCO)C(C)(C)C2=O)cc(C)c1/C=C/S(=O)(=O)N1CCC2(CC1)N=C(c1cccc(OC(F)(F)F)c1)NC2=O [Compound 714, 3-(3,5-dimethyl-4-{(E)-2-[4-oxo-2-(3-trifluoromethoxy-phenyl)-1,3,8-triaza-spiro[4.5]dec-1-ene-8-sulfonyl]-vinyl}-phenyl)-1-(2-hydroxy-ethyl)-5,5-dimethyl-imidazolidine-2,4-dione] | 36
Cc1cc(CNC(=O)OC(C)(C)C)ccc1CCS(=O)(=O)N1CCC2(CC1)N=C(C1CCOCC1)NC2=O [Compound 165, (3-methyl-4-{2-[4-oxo-2-(tetrahydro-pyran-4-yl)-1,3,8-triaza-spiro[4.5]dec-1-ene-8-sulfonyl]-ethyl}-benzyl)-carbamic acid tert-butyl ester] | 37
Cc1cc(OCCC(O)CO)ccc1-c1ccc(S(=O)(=O)N2CCC3(CC2)N=C(c2ccc(F)c(C(F)(F)F)c2)NC3=O)s1 (stereo not drawn) [Compound 341, 8-{5-[4-(3,4-Dihydroxy-butoxy)-2-methyl-phenyl]-thiophene-2-sulfonyl}-2-(4-fluoro-3-trifluoromethyl-phenyl)-1,3,8-triaza-spiro[4.5]dec-1-en-4-one] | 62
O=C1NC(C2CCCCC2)=NC12CCN(S(=O)(=O)/C=C/c1nccs1)CC2 [Compound 343, 2-Cyclohexyl-8-((E)-2-thiazol-2-yl-ethenesulfonyl)-1,3,8-triaza-spiro[4.5]dec-1-en-4-one] | 13
O=C1NC(c2cccc(OC(F)(F)F)c2)=NC12CCN(S(=O)(=O)CCc1ccc3c(ccn3C[C@H](O)CO)c1)CC2 [Compound 850, 8-{2-[1-((S)-2,3-dihydroxy-propyl)-1H-indol-5-yl]-ethanesulfonyl}-2-(3-trifluoromethoxy-phenyl)-1,3,8-triaza-spiro[4.5]dec-1-en-4-one] | 82
Cc1cc(C(=O)N(C)C)ccc1CCS(=O)(=O)N1CCC2(CC1)N=C(c1cscn1)NC2=O [Compound 121, 3,N,N-trimethyl-4-[2-(4-oxo-2-thiazol-4-yl-1,3,8-triaza-spiro[4.5]dec-1-ene-8-sulfonyl)-ethyl]-benzamide] | 5.8
O=C1NC(C2CCCCC2)=NC12CCN(S(=O)(=O)CCc1cccc3c1ccn3C[C@H](O)[C@@H](O)COCc1ccccc1)CC2 [Compound 1393, 8-{2-[1-((2S,3S)-4-benzyloxy-2,3-dihydroxy-butyl)-1H-indol-4-yl]-ethanesulfonyl}-2-cyclohexyl-1,3,8-triaza-spiro[4.5]dec-1-en-4-one] | 84
Cc1cc(C(=O)N(C)C)ccc1/C=C/S(=O)(=O)N1CCC2(CC1)N=C(c1cccc(OC(F)(F)F)c1)NC2=O [Compound 231, 3,N,N-trimethyl-4-{(E)-2-[4-oxo-2-(3-trifluoromethoxy-phenyl)-1,3,8-triaza-spiro[4.5]dec-1-ene-8-sulfonyl]-vinyl}-benzamide] | 96
Cc1cc(C(=O)N(C)C)ccc1CCS(=O)(=O)N1CCC2(CC1)N=C(c1cccc(COCC(F)(F)C(F)F)c1)NC2=O [Compound 170, 3,N,N-trimethyl-4-(2-{4-oxo-2-[3-(2,2,3,3-tetrafluoro-propoxymethyl)-phenyl]-1,3,8-triaza-spiro[4.5]dec-1-ene-8-sulfonyl}-ethyl)-benzamide] | 77
COC(=O)CNc1ccc(/C=C/S(=O)(=O)N2CCC3(CC2)N=C(C2CCCCC2)NC3=O)c(C(F)(F)F)c1 [Compound 493, {4-[(E)-2-(2-cyclohexyl-4-oxo-1,3,8-triaza-spiro[4.5]dec-1-ene-8-sulfonyl)-vinyl]-3-trifluoromethyl-phenylamino}-acetic acid methyl ester] | 50
Cc1cc(C(=O)N2CCC(O)(CF)CC2)cc(C)c1/C=C/S(=O)(=O)N1CCC2(CC1)N=C(c1ccc(Cl)c(OC(C)(C)C(F)(F)F)c1)NC2=O [Compound 1271, 2-[4-chloro-3-(2,2,2-trifluoro-1,1-dimethyl-ethoxy)-phenyl]-8-{(E)-2-[4-(4-fluoromethyl-4-hydroxy-piperidine-1-carbonyl)-2,6-dimethyl-phenyl]-ethenesulfonyl}-1,3,8-triaza-spiro[4.5]dec-1-en-4-one] | 92
Cc1cc(C(=O)N2CCC(C)(O)CC2)cc(C)c1/C=C/S(=O)(=O)N1CCC2(CC1)N=C(c1ccc(C(F)(F)F)c(OCC(F)(F)C(F)F)c1)NC2=O [Compound 1223, 8-{(E)-2-[4-(4-hydroxy-4-methyl-piperidine-1-carbonyl)-2,6-dimethyl-phenyl]-ethenesulfonyl}-2-[3-(2,2,3,3-tetrafluoro-propoxy)-4-trifluoromethyl-phenyl]-1,3,8-triaza-spiro[4.5]dec-1-en-4-one] | 54
CN(C)C(=O)Nc1ccc(/C=C/S(=O)(=O)N2CCC3(CC2)N=C(C2CCCCC2)NC3=O)c(C(F)(F)F)c1 [Compound 194, 3-{4-[(E)-2-(2-cyclohexyl-4-oxo-1,3,8-triaza-spiro[4.5]dec-1-ene-8-sulfonyl)-vinyl]-3-trifluoromethyl-phenyl}-1,1-dimethyl-urea] | 56
C=CCCCCCCCC(=O)N(C)c1cc(C)c(CCS(=O)(=O)N2CCC3(CC2)N=C(CCCCC=C)NC3=O)c(C)c1 [Compound 1443, dec-9-enoic acid {4-[2-(2-hex-5-enyl-4-oxo-1,3,8-triaza-spiro[4.5]dec-1-ene-8-sulfonyl)-ethyl]-3,5-dimethyl-phenyl}-methyl-amide] | 61
CN(C)CCNC(=O)Cc1ccc(/C=C/S(=O)(=O)N2CCC3(CC2)N=C(C2CCCCC2)NC3=O)cc1 [Compound 208, 2-{4-[(E)-2-(2-cyclohexyl-4-oxo-1,3,8-triaza-spiro[4.5]dec-1-ene-8-sulfonyl)-vinyl]-phenyl}-N-(2-dimethylamino-ethyl)-acetamide] | 22
Cc1cc2[nH]ccc2cc1/C=C/S(=O)(=O)N1CCC2(CC1)N=C(C1CCCCC1)NC2=O [Compound 488, 2-cyclohexyl-8-[(E)-2-(6-methyl-1H-indol-5-yl)-ethenesulfonyl]-1,3,8-triaza-spiro[4.5]dec-1-en-4-one] | 48
COc1ccc(-c2ccccc2CCS(=O)(=O)N2CCC3(CC2)N=C(C2CCCCC2)NC3=O)cn1 [Compound 339, 2-cyclohexyl-8-{2-[2-(6-methoxy-pyridin-3-yl)-phenyl]-ethanesulfonyl}-1,3,8-triaza-spiro[4.5]dec-1-en-4-one] | 66
Cc1cc(OC[C@H](O)[C@@H](O)CO)cc(C)c1/C=C/S(=O)(=O)N1CCC2(CC1)N=C(C1CCC(CCC(F)(F)F)CC1)NC2=O (stereo partly drawn) [Compound 705, 8-{(E)-2-[2,6-dimethyl-4-((2S,3S)-2,3,4-trihydroxy-butoxy)-phenyl]-ethenesulfonyl}-2-[4-(3,3,3-trifluoro-propyl)-cyclohexyl]-1,3,8-triaza-spiro[4.5]dec-1-en-4-one] | 76
O=C(CO)NCc1ccc(CCS(=O)(=O)N2CCC3(CC2)N=C(C2CCCCC2)NC3=O)cc1 [Compound 659, N-{4-[2-(2-cyclohexyl-4-oxo-1,3,8-triaza-spiro[4.5]dec-1-ene-8-sulfonyl)-ethyl]-benzyl}-2-hydroxy-acetamide] | 46
Cc1cc(C(=O)N2CCC(C)(O)CC2)cc(C)c1CCS(=O)(=O)N1CCC2(CC1)N=C(c1ccc(F)c(C(F)(F)F)c1)NC2=O [Compound 803, 2-(4-fluoro-3-trifluoromethyl-phenyl)-8-{2-[4-(4-hydroxy-4-methyl-piperidine-1-carbonyl)-2,6-dimethyl-phenyl]-ethanesulfonyl}-1,3,8-triaza-spiro[4.5]dec-1-en-4-one] | 103
COc1cccc(CCS(=O)(=O)N2CCC3(CC2)N=C([C@H]2CC[C@H](C)CC2)NC3=O)c1C [Compound 668, 8-[2-(3-Methoxy-2-methyl-phenyl)-ethanesulfonyl]-2-(4-methyl-cyclohexyl)-1,3,8-triaza-spiro[4.5]dec-1-en-4-one] | 40
Cc1cc(C(=O)N(C)C)ccc1CCS(=O)(=O)N1CCC2(CC1)N=C(c1cccc(COCC(F)(F)F)c1)NC2=O [Compound 168, 3,N,N-Trimethyl-4-(2-{4-oxo-2-[3-(2,2,2-trifluoro-ethoxymethyl)-phenyl]-1,3,8-triaza-spiro[4.5]dec-1-ene-8-sulfonyl}-ethyl)-benzamide] | 69
